Earlier results on 1 molecule are cited in US20240317750A1, “An Efficient Process for the Synthesis of Methylliberine and Polymorphs Thereof” (Fertis India Pvt. Ltd., priority 2021, published 2024).

The conditions of the data set: background statement, available toxicological information; no test described.

For `COc1nc2c(c(=O)n1C)n(C)c(=O)n2C` [methylliberine, 2-Methoxy-1,7,9-trimethyl-7,9-dihydro-1H-purine-6,8-dione], the genotoxicity entry is recorded as “does not cause any genotoxicity”.
